Source: ChEMBL document CHEMBL2390817, “Structure-activity relationship of human glutaminyl cyclase inhibitors having an N-(5-methyl-1H-imidazol-1-yl)propyl thiourea template” (Bioorg Med Chem, 2013)

Molecular target: Glutaminyl-peptide cyclotransferase (Homo sapiens, UniProt Q16769)
Assay: Inhibition of human glutaminyl cyclase expressed in HEK293 cells using L-glutaminyl-beta-naphthylamine as substrate after 1 hr by fluorometric analysis; call rule not given here

Chain of Glutaminyl-peptide cyclotransferase (Q16769 whole entry): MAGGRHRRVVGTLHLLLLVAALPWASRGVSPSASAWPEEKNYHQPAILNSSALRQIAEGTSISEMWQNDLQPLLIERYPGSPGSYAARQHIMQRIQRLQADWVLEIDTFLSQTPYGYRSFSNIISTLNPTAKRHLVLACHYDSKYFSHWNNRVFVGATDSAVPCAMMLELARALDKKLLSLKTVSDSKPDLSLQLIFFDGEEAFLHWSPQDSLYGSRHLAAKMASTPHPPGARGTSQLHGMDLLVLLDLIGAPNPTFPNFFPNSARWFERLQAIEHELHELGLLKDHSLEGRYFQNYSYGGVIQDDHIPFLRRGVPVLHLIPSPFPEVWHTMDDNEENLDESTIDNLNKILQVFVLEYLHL

IC50	SMILES
Active	Cc1cncn1CCCNC(=S)Nc1ccc2cnccc2c1
Active	Cc1cncn1CCCNC(=S)Nc1cnc2ccccc2c1

Further lines, the compound ahead of its results:

SMILES	IC50
Cc1cncn1CCCNC(=S)Nc1ccc2cc[nH]c2c1	Active
Cc1cncn1CCCNC(=S)Nc1cccc2c1OCCO2	Not Active
Cc1cncn1CCCNC(=S)Nc1ccc2c(c1)CCC2	Active
Cc1cncn1CCCNC(=S)Nc1cccc2cccnc12	Active
Cc1cncn1CCCNC(=S)Nc1cccnc1	Active
